Drawing on ChEMBL document CHEMBL1146912, “Synthesis, radiolabeling, and in vivo evaluation of an 18F-labeled isatin analog for imaging caspase-3 activation in apoptosis” (Bioorg Med Chem Lett, 2006), this text covers IC50 and Activity for two compounds.

Bounds are passed on as bounds.

The term IC50 denotes the midpoint of a concentration-inhibition curve.

Data set [1] has as its target T1, Caspase-3 (Homo sapiens, UniProt P42574).
T1 sequence (P42574 whole entry): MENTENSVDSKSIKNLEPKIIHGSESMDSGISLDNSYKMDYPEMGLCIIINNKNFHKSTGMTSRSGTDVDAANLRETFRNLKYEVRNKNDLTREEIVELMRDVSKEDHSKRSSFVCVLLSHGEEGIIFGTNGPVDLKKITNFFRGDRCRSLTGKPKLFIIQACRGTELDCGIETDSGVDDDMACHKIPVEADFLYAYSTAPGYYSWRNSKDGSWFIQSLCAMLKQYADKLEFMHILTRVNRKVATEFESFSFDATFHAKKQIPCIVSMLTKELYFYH
The data set is described as follows: Inhibition of human recombinant caspase 3.

Data set [2] concerns the target T2, Caspase-1 (Homo sapiens, UniProt P29466).
T2 sequence (P29466 whole entry): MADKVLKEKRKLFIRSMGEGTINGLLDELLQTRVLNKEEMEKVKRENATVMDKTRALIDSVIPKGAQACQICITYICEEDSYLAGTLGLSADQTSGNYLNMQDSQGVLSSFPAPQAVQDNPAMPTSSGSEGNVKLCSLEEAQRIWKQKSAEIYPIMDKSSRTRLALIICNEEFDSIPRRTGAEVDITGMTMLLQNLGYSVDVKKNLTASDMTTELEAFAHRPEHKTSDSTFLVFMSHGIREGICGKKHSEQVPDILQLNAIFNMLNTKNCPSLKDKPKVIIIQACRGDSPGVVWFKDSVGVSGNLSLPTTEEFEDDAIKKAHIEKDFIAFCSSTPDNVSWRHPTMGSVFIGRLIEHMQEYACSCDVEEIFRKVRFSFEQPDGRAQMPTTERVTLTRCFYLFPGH
The data set is described as follows: Inhibition of human recombinant caspase 1.

Data set [3] concerns the target T3, Caspase-6 (Homo sapiens, UniProt P55212).
T3 sequence (P55212 whole entry): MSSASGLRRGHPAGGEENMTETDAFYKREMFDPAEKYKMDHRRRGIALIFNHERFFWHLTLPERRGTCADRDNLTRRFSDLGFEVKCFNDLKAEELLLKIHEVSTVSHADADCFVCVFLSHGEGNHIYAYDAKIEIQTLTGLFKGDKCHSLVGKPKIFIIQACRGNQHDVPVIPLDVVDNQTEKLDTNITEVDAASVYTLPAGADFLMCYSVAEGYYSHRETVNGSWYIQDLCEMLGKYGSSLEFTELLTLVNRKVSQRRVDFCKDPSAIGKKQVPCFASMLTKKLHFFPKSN
The data set is described as follows: Inhibition of human recombinant caspase 6.

Data set [4] has as its target Caspase-8 (Homo sapiens, UniProt Q14790). The data set is described as follows: Inhibition of human recombinant caspase 8.
For data set [5], the species on record is Rattus norvegicus. The data set is described as follows: Increase in uptake in liver of cycloheximide-treated Sprague-Dawley rat relative to control after 1 hr. The format is ADME, organism-based. The following applies: in vivo.
For data set [6], the species on record is Rattus norvegicus. Put plainly: Effect on uptake in fat of cycloheximide-treated Sprague-Dawley rat relative to control after 1 hr. The format is ADME, organism-based, Adipose tissue. The following applies: in vivo.
For data set [7], the species on record is Rattus norvegicus. Put plainly: Increase in uptake in spleen of cycloheximide-treated Sprague-Dawley rat relative to control after 1 hr. Format: ADME, organism-based. The following applies: in vivo.

Chain of Caspase-8 (Q14790 217-374 limits assumed): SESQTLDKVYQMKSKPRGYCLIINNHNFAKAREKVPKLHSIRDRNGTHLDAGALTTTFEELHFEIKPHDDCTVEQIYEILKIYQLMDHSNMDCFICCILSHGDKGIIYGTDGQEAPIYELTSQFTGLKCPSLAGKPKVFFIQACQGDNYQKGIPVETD
Chain of Caspase-8 (Q14790 385-479 limits assumed): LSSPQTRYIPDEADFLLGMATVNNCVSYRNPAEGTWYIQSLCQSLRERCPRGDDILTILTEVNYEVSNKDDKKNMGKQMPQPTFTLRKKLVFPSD

Consider `O=C1C(=O)N(Cc2ccc(OCCF)cc2)c2ccc(S(=O)(=O)N3CCC[C@H]3COc3ccccc3)cc21`, for which the concentration for half-maximal inhibition (IC50) was 0.0097 µM in data set [1], over 50 µM in data set [2], 3.7 µM in data set [3] and over 50 µM in data set [4].

Consider `O=C1C(=O)N(Cc2ccc(OCC[18F])cc2)c2ccc(S(=O)(=O)N3CCC[C@H]3COc3ccccc3)cc21`, for which the Activity was 94% in data set [5], “Not Active” in data set [6] and 184% in data set [7].
